Common to all, as to experiment: relative viability (nuclei count vs DMSO), 5 days (fraction); higher = more cells survive
Compound in test [1]: C1=CC2=C(C=CC(=C2)C=C3C(=O)NC(=NCC4=CC=CS4)S3)N=C1 [RO-3306]
Put shortly:
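Acceptance criteria were a control CV below 25% and at least one doubling per plate. Lung cancer cell lines in 1536-well plates got five library-drug doses (not always all listed) √10 apart by pinning and were left 5 days with no medium change. Viability divides treated-well nuclei by vehicle-well nuclei and is the median across plates. Nuclei were counted by MetaXpress from 4× Hoechst images.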

Compound in test [2]: O=S(=O)(c1ccccc1)N(CC(F)(F)F)c1ccc(C(O)(C(F)(F)F)C(F)(F)F)cc1 + Nc1ncn([C@H]2C[C@H](O)[C@@H](CO)O2)c(=O)n1 [Decitabine] (partner 2 µM)
The method, boiled down: (§1)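 For relative viability, nuclei counts in treated wells were divided by those in vehicle wells. Lung cancer cell lines had been pin-tool dosed in 1536-well plates the day after seeding and cultured for 5 days, then fixed and stained in one step (final 0.05% Triton X-100, 1% formaldehyde, 1 ug/ml Hoechst) and imaged at 4×. Doses were one drug alone or a fixed anchor-drug dose plus five library-drug doses (not always all listed) in √10 steps, and values are duplicate-plate medians.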

Compound in test [3]: C1=CC2=C(C=CC(=C2)C=C3C(=O)NC(=NCC4=CC=CS4)S3)N=C1 [RO-3306] + CC(C)C[C@H](NC(=O)[C@H](Cc1ccccc1)NC(=O)c1cnccn1)B(O)O [Bortezomib] (partner 0.002 µM)
Put shortly:
as §1

Compound in test [4]: C1=CC2=C(C=CC(=C2)C=C3C(=O)NC(=NCC4=CC=CS4)S3)N=C1 [RO-3306] + O=C(CCCCCCC(=O)Nc1ccccc1)NO [Vorinostat] (partner 1 µM)
Put shortly: as §1

For UMC-11, the relative viability was 1.09 in test [1] (0.01 µM); 0.855 in test [1] (0.03162 µM); 0.969 in test [1] (0.1 µM); 1.05 in test [1] (0.3162 µM); 0.828 in test [1] (1 µM); 0.587 in test [2] (first compound 0.8 µM). In addition, the relative viability in test [2] (first compound 2.53 µM) was 0.471; in test [2] (first compound 8 µM), 0.681; in test [3] (first compound 0.01 µM), 1.22; in test [3] (first compound 0.03162 µM), 0.407; in test [3] (first compound 0.1 µM) it was 0.64; in test [3] (first compound 0.3162 µM), 0.689. Further, the relative viability was 0.538 in test [3] (first compound 1 µM); 0.386 in test [4] (first compound 0.01 µM); 0.376 in test [4] (first compound 0.03162 µM); 0.384 in test [4] (first compound 0.1 µM); 0.339 in test [4] (first compound 0.3162 µM); 0.322 in test [4] (first compound 1 µM).

Source of the values: the supplement of paper PMC10307832.
